Measured values published in patent US5885994A, “Tetrahydroquinoxaline dopamine D4 receptor antagonists” (Warner-Lambert Company, priority 1998, dated 1999).

Experiments:
[1] = system: synthesis rates of rat brain catecholamines; conditions: ip
Description: The effects of compounds on synthesis rates of rat brain catecholamines were estimated by measuring the accumulation of [3-(3,4-dihydroxyphenyl)-L-alanine (DOPA) after administration of the L-aromatic amino acid decarboxylase inhibitor, NSD 1015 (Pugsley, et al., 1995).
Test compounds were administered to rats i.p. 30 minutes before the injection of the L-aromatic amino acid decarboxylase inhibitor, NSD 1015 (100 mg/kg i.p.). Rats were sacrificed by decapitation 30 minutes later. The striatum and mesolimbic regions were rapidly dissected from the brains and stored at -70° C. until assayed. Synthesis rates of rat brain catecholamines were estimated by measuring the accumulation of the DA precursor DOPA after NSD 1015 administration by HPLC with electrochemical detection (Puglsey, et al., 1995). Each value represents the mean of four determinations and is expressed as a percent of the control values.

[2] = system: amphetamine-stimulated locomotion; assay: Blockade of amphetamine-stimulated locomotion in rats; format: in vivo, rat
Description: PROTOCOL FOR THE BLOCKADE OF AMPHETAMINE-STIMULATED LOCOMOTION IN RATS
The blockade of amphetamine-stimulated locomotion procedure is a modification of the Locomotor Activity Protocol in the Omnitech Digiscan Activity Monitors described above. The blockade of amphetamine-stimulated locomotion procedure uses the central nervous system stimulant d-amphetamine to assess antipsychotic activity of dopaminergic agents.
Male Sprague-Dawley rats (Harlan Labs) were used for these studies. Drugs were dissolved in saline or water, and administered either orally (PO) or intraperitoneally (IP) in volumes of 5 mL/kg. Saline control rats and amphetamine (0.5 mg/kg IP) control rats are included with each study (n=4-6 rats per treatment group). For the IP studies, amphetamine is given 20 minutes prior to the drug, after which a 30 minute locomotor activity test is conducted. For the oral study, drug is dosed 30 minutes prior to the test, while amphetamine is given 15 minutes prior to the test, which allows time for oral absorption. Locomotor activity (centimeters travelled per 30 minute test) is measured in 16"×16" open chambers. Amphetamine generally produces a 2- to 3-fold increase in locomotion over saline controls. Drug effects are reported as percent reversal of amphetamine-stimulated locomotion. Significant changes in amphetamine-stimulated locomotion, relative to amphetamine treated controls, were determined by t-test. The dose which would reverse amphetamine-stimulated locomotion by 50% (ED50) and the 95% confidence limits were estimated by regression analysis.

[3] = biological target: human D2 receptor (Homo sapiens, UniProt P14416); assay: Inhibition of [3H]spiperone binding to human dopamine D2 receptors; conditions: human D2 (Long form), CHO K1 membranes
Sequence of human D2 receptor (P14416 whole entry): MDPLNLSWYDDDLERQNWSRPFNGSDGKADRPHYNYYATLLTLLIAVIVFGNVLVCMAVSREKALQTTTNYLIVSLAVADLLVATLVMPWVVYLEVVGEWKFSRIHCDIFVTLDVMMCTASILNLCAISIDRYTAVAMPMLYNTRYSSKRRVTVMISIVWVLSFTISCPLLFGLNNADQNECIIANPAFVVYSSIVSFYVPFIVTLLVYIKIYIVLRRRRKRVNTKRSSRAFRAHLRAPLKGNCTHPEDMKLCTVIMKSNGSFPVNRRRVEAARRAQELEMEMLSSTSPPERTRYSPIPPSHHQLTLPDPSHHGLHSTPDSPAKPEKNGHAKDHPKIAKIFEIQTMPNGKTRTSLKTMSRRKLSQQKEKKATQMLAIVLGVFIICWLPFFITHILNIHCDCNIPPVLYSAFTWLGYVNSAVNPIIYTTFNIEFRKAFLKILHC
Description: A cell line expressing human dopamine D2 (Long form) receptors was purchased from Oregon Health Sciences University, Portland, Oreg. The D2 receptor cDNA was subcloned into an expression vector, pRc/CMV. The plasmids were transfected by electroporation into CHO K1 cells. A single stable transfectant, resistant to the antibiotic 418, was isolated and selected for use in the binding studies. For D4 binding, CHO K1 cells stably transfected to express the human recombinant dopamine D4.2 receptor subtype, as described by Shih, et al., "The expression and functional characterization of human dopamine D4.2 receptor in CHO K1 cells," Soc. Neurosci., 1995;21(Part 1):621.
CHO K1 cells expressing either human D2 and D4.2 receptors were grown in 162 cm^2 culture flasks in F12 medium (Gibco Laboratories, Grand Island, N.Y.) supplemented with 10% fetal bovine serum (FBS, Hyclone, Logan, Utah) in an atmosphere of 5% CO2 /95% air at 37° C. Cells were grown until confluent, after which growth medium was removed and replaced with 0.02% ethylene diamine tetracetate (EDTA) in a phosphate-buffered saline solution (Sigma Chemical Co., St. Louis, Mo.) and scraped from the flasks. The cells were centrifuged at about 1000×g for 10 minutes at […] and then resuspended in TEM buffer (25 mM Tris-HCl, pH 7.4, 5 mM EDTA, and 6 mM MgCl2) for D2 or the D4.2 buffer (50 mM Tris-HCl, pH 7.4, 5 mM EDTA, 1.5 mM CaCl2, 5 mM KCl, and 120 mM NaCl) and homogenized. The membranes were pelleted by centrifugation at 20,000×g at […] for 20 minutes. Then the pellets were resuspended in appropriate buffer at 1 mL/flask and stored at -70° C. until used in the receptor binding assay.
Receptor Binding Assays: D2,D4.2 Dopamine Receptors
After 60 minutes incubation at 25° C., the incubations were terminated by rapid filtration through Whatmann F/B lass fibre filters (soaked for 1 hour in 0.5% polyethylenimine) on a cell harvester, with three washes of 1 mL ice-cold buffer. Individual filter disks containing the bound ligand were placed in counting vials with 4 mL of scintillation fluid (Ready Gel, Beckman Instrument Inc., Fullerton, Calif.) and then counted in a Beckman LS-6800 liquid scintillation counter at an efficiency of 45%. Nonspecific binding was defined in presence of 1 mM of haloperidol.
Saturation and competition binding data were analyzed using an iterative nonlinear least-square curve-fitting Ligand program. In competition experiments, apparent Ki values were calculated from IC50 values by method of Cheng and Prusoff, "Relationship between the inhibition constant (Ki) and the concentration of inhibitor which causes 50% inhibition (IC50) of an enzymatic reaction," Biochem. Pharmacol., 1973;22:3099-3108. Experimental compounds were made up as stock solutions in dimethyl sulfoxide (DMSO). […] Each observation was carried out in triplicate. To allow these calculations, Ki values were measured for the interaction of various ligands with the receptor. […]

IC50 [3]: 2940 nM
Compound: Cc1ccc(N2CCN(Cc3ccc4c(c3)NCCN4)CC2)cc1C [Example 2, 6-[4-(3,4-Dimethylphenyl)piperazin-1-ylmethyl]-1,2,3,4-tetrahydroquinoxaline]
DA Synthesis in Rat Hippocampus [1]: +52% of the control values
DA Synthesis in Rat Striatum [1]: +66% of the control values
blockade of amphetamine-stimulated locomotion (result in words) ([2]; rat, 1, 3, 10 and 30 mg/kg IP): dose-dependent blockade
ED50 ([2]; rat, PO, read-out: oral blockade of amphetamine-stimulated locomotion ED50): 5.8 mg/kg
